Measured values from ChEMBL document CHEMBL3864156, “Inhibition of plasma lipid oxidation induced by peroxyl radicals, peroxynitrite, hypochlorite, 15-lipoxygenase, and singlet oxygen by clinical drugs” (Bioorg Med Chem Lett, 2016).
Calls of active or inactive are those of the source. No cut-off for these calls is given here.

Experiments:
[1] = Antioxidant activity assessed as inhibition of Meo-AMVN-derived peroxyl radicals-induced fucoxanthin consumption at 50 uM; assay type: functional
Mus musculus [2] = organism: Mus musculus; test: Antioxidant activity in 10% C57BL/6J mouse plasma assessed as inhibition of AAPH-derived peroxyl radicals-induced pyranine consumption at 50 uM; assay type: functional, cell-free
Mus musculus [3] = organism: Mus musculus; test: Antioxidant activity in 10% C57BL/6J mouse plasma assessed as inhibition of NaOCl-induced lipid oxidation at 30 uM by DPPP-based fluorescence assay; assay type: functional, cell-free
[4] = 1-octanol-water partition coefficient, log P of the compound; assay type: physicochemical
[5] = Plasma concentration in paediatric patients with congestive heart failure; assay type: ADME; settings: human
[6] = Plasma concentration in Sprague-Dawley rat at 1 mg/kg bolus dose with continuous infusion of 1 mg/kg per hour measured for 24 hrs; assay type: ADME, organism-based; settings: iv
Mus musculus [7] = organism: Mus musculus; test: Antioxidant activity in 10% C57BL/6J mouse plasma assessed as inhibition of SIN-1-derived peroxynitrite-induced lipid oxidation by DPPP-based fluorescence assay; assay type: functional, cell-free
Mus musculus [8] = organism: Mus musculus; test: Antioxidant activity in 10% C57BL/6J mouse plasma assessed as inhibition of NaOCl-induced lipid oxidation by DPPP-based fluorescence assay; assay type: functional, cell-free
[9] = molecular target: T1, Polyunsaturated fatty acid lipoxygenase ALOX15 (Mus musculus) (UniProt P39654); test: (§1) Inhibition of 15-LOX-mediated lipid oxidation in 10% C57BL/6J mouse plasma; assay type: cell-free
T1 sequence (whole entry): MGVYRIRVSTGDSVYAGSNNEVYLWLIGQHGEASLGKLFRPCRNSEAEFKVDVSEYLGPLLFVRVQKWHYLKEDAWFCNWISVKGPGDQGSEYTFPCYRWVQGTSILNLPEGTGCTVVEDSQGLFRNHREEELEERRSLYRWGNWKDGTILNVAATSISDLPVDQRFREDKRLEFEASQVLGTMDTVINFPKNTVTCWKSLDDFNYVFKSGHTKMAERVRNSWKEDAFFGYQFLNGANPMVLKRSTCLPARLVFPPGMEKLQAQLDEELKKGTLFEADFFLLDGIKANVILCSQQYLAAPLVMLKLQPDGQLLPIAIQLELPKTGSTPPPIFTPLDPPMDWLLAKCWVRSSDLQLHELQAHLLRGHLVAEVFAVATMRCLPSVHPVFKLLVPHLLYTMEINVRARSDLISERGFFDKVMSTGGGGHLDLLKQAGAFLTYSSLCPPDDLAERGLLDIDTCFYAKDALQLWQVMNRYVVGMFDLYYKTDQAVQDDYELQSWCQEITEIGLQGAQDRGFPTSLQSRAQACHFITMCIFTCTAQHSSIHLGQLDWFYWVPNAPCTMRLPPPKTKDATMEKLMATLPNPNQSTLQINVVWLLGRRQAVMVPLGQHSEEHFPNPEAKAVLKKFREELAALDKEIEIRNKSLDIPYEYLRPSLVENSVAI

[10] = molecular target: T2, Polyunsaturated fatty acid lipoxygenase ALOX15 (Mus musculus, UniProt P39654); test: as §1; assay type: cell-free
T2 sequence (P39654 whole entry): T1 sequence (whole entry)

[11] = Plasma concentration in pediatric kawasaki patient at 10 to 25 mg/kg, po by HPLC method; assay type: ADME, organism-based; settings: human, in vivo
[12] = Drug level in plasma (unknown origin); assay type: ADME, cell-free
[13] = Plasma concentration in human at 400 mg, po; assay type: ADME, cell-free
[14] = 1-octanol/water, read-out: logP

Cc1c(C)c2c(c(C)c1O)CC[C@@](C)(CCC[C@H](C)CCC[C@H](C)CCCC(C)C)O2
inhibition [1]: Active | inhibition (Mus musculus [2]): Active

COc1ccccc1OCCNCC(O)COc1cccc2[nH]c3ccccc3c12 (centres undefined) [CARVEDILOL]
inhibition (Mus musculus [3]): Dose-dependent effect | logP ([4]; octanol/water): 1.04 | concentration [5]: 0.5 µM

O=c1c2ccccc2[se]n1-c1ccccc1 [EBSELEN]
inhibition (Mus musculus [3]): Dose-dependent effect | logP [4, 14]: 1.25 | concentration at 24 h [6]: 5 to 20 µM

CC1=NN(c2ccccc2)C(=O)C1 [EDARAVONE]
inhibition (Mus musculus [2]): Active | inhibition (Mus musculus [7]): Dose-dependent effect | inhibition (Mus musculus [8]): Dose-dependent effect | inhibition [9]: Dose-dependent effect | IC50 [10]: 34 µM | logP [4, 14]: 0.86

CC(=O)CCCCn1c(=O)c2c(ncn2C)n(C)c1=O [PENTOXIFYLLINE]
inhibition (Mus musculus [3]): Dose-dependent effect | logP [4, 14]: 0.19 | concentration [11]: 5 to 20 µM

CC(C)(Sc1cc(C(C)(C)C)c(O)c(C(C)(C)C)c1)Sc1cc(C(C)(C)C)c(O)c(C(C)(C)C)c1 [PROBUCOL]
inhibition (Mus musculus [2]): Active | inhibition (Mus musculus [7]): Dose-dependent effect | inhibition (Mus musculus [8]): Dose-dependent effect | logP [4, 14]: 1.02 | concentration [12]: 30 µM

Cc1c(C)c2c(c(C)c1O)CCC(C)(COc1ccc(CC3SC(=O)NC3=O)cc1)O2 (centres undefined) [TROGLITAZONE]
inhibition [1]: Active | inhibition (Mus musculus [2]): Active | inhibition (Mus musculus [3]): Dose-dependent effect | inhibition [9]: Dose-dependent effect | IC50 [10]: 20 µM | logP ([4]; octanol/water): 0.95 | concentration [13]: 5 to 20 µM
